Like-named read-outs stand apart in the source and are kept apart here.
Key:
[1] = target: T1, α7 Receptor (alpha7 nAChR) (Rattus norvegicus, UniProt Q05941); test: Displacement binding of 125I-α-bungarotoxin to rat brain membranes (α7 nAChR); settings: for α7/α4β2 Selectivity (Selectivity factor): Ki for alpha4beta2 binding divided by Ki for alpha7 binding, rat brain; for Enantiomeric Selectivity: given once per enantiomer pair, on the line of the first enantiomer, rat α7 binding
T1 construct: protein concentration of the rat brain membranes contained in the pellet; tissue Pel-Freeze Biologicals; host or cells: whole male Sprague-Dawley rat brain membranes
T1 sequence (Q05941 23-502): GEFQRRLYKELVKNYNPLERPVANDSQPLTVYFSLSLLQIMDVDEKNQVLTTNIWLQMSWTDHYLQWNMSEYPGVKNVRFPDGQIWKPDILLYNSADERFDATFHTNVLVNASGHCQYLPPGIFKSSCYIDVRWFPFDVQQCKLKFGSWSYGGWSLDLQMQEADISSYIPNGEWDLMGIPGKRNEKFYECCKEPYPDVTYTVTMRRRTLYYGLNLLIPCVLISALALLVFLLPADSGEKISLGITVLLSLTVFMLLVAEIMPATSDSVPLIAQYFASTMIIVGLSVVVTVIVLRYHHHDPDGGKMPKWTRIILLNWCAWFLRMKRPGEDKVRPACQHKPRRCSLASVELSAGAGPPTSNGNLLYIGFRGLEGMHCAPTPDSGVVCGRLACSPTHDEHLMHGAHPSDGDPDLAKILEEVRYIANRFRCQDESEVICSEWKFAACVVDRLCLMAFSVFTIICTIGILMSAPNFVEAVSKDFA
Excerpt: As used herein, the term “selectively binds,” “selective binding,” and cognates thereof refer to anabaseine compounds that preferentially bind one type of nicotinic acetylcholine receptor relative to another type of acetylcholine receptor (e.g., α7 nAChR versus the α4β2 nAChR). Because Ki is an inverse measure of affinity, binding selectivity of a compound for the α7 nAChR versus the α4β2 nAChR is expressed by dividing the Ki for binding to the α4β2 nAChR by the Ki for binding to the α7 nAChR. In one embodiment, a compound of the invention selectively binds α7 nAChR compared to α4β2 nAChR. The selectivity of a compound of the invention for α7 nAChR over α4β2 nAChR is at least 2, 3, 4, 5, 6, 7, 8, 9, 10, 11, 12, 13, 14, 15, or more. In another embodiment, a compound of the invention selectively binds α4β2 nAChR compared to α7 nAChR. The selectivity of a compound of the invention for α4β2 nAChR over α7 nAChR is at least 2, 3, 4, 5, 6, 7, 8, 9, 10, 11, 12, 13, 14, 15, or more. Binding to the α7 and α4β2 nAChR (including relative binding to each of these receptors) can be determined by the skilled artisan using the methods known in the art, in particular in view of the teachings provided herein. In particular, the assays used to determine selective binding are according to Marks and Collins for [^125I]alpha-bungarotoxin experiments (for alpha7 receptor binding) and a modified method by Pabreza et al. for [^3H]cytisine experiments (for α4β2), used as described in US 2009/0215705.
(§1) Whole male Sprague-Dawley rat brains (Pel-Freeze Biologicals, Rogers, Ariz.) were homogenized with a 30 ml Wheaton (location) glass homogenizing tube and pestle in binding saline (120 mM NaCl, 5 mM KCl, 2 mM CaCl2, 1 mM MgCl2, 50 mM Tris-TrisHCl buffer, pH 7.4). After the homogenate was centrifuged at 11,000 rpm (convert to ×G) for a 10 min, the resulting pellet was resuspended in fresh binding saline and homogenized and centrifuged again. A protein assay (BCA, Pierce, Rockford, Ill.) was then performed to obtain the protein concentration of the rat brain membranes contained in the pellet, which was stored at −85° C. before use.
Radioligands used in the displacement binding assays were obtained from Perkin Elmer Life and Analytical Sciences (Boston, Mass.). ^3H-Cytisine was used to selectively bind to alpha4beta2 nAChRs and ^125I-α-bungarotoxin (α-Btx) for alpha? nAChRs. ^3H-Cytisine (34 Ci/mmol) experiments were performed according to Flores et al. (1992) with a few minor alterations, specifically that the incubation time was increased to four hours at 4° C. to assure binding equilibrium. The ^125I-α-Btx (136 Ci/mmol) experiments involved 37° C. incubation for three hours to assure equilibration. Both radioligands were generally tested at final concentrations of 1 nM. Membranes at the above mentioned concentrations were suspended in binding saline containing 2 mg/ml of bovine serum albumin (Sigma, St. Louis, Mo.) to reduce non-specific binding. For each radioligand, nonspecific binding was measured in the presence of a final concentration of 1 mM (S)-nicotine hydrogen tartrate salt (Sigma, St. Louis, Mo.). After incubation, radioligand bound to membranes in 48 tubes was rapidly collected by vacuum filtration using a Brandel cell harvester (Gaithersburg, Md.) and Whatman GF/C glass fiber filters that were pre-soaked in 0.5% polyethylenimine for 45 minutes to reduce nonspecific binding. The radiolabeled membranes were rapidly washed three times with 3 ml ice-cold binding saline to separate bound from free radioligand. Filters containing ^3H-cytisine bound membranes were placed in 20 ml scintillation tubes and suspended in 8 mls of 30% Scintisafe scintillation fluid (Fisher), then counted in a Beckman LS-6500 liquid scintillation counter (Fullerton, Calif.). Filters containing ^125I-α-Btx bound membranes were placed in 4 ml scintillation vials and counted in a Beckman 5500B gamma counter (Fullerton, Calif.). […]

[2] = target: T2, α4β2 Receptor (alpha4beta2 nAChR) (Rattus norvegicus, UniProt P09483+P12390); test: Displacement binding of 3H-cytisine to rat brain membranes (α4β2 nAChR)
T2 construct: protein concentration of the rat brain membranes contained in the pellet; tissue Pel-Freeze Biologicals; host or cells: whole male Sprague-Dawley rat brain membranes
T2 sequence (P09483 31-630): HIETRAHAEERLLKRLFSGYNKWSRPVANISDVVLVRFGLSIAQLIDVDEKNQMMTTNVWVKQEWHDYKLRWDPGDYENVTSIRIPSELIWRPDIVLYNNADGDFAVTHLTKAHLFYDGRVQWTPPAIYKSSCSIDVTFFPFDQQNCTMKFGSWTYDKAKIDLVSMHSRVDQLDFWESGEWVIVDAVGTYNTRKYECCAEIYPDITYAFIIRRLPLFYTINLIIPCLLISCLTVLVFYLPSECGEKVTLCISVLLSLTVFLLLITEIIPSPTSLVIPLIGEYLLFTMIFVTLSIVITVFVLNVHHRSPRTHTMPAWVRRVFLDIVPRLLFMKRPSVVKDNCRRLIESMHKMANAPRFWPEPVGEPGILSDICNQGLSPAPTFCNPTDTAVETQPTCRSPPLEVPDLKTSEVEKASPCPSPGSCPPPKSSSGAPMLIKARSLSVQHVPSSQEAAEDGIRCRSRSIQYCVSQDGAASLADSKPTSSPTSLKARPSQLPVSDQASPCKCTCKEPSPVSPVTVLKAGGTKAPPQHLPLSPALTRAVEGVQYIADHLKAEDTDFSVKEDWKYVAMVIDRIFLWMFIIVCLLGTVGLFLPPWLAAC
T2 sequence (P12390 25-500): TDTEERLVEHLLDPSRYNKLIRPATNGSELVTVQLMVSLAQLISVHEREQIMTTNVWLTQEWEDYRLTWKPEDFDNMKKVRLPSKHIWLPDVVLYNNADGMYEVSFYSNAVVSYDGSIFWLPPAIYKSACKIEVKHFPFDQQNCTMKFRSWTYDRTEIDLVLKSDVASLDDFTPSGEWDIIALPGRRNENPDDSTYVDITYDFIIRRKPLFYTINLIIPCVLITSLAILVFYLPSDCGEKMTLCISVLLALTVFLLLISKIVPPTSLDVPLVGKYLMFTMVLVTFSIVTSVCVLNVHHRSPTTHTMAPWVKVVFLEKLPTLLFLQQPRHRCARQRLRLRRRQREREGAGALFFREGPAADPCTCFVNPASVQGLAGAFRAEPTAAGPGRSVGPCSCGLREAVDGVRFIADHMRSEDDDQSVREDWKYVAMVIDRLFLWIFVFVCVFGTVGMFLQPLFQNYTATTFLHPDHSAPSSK
Description: as §1
Radioligands used in the displacement binding assays were obtained from Perkin Elmer Life and Analytical Sciences (Boston, Mass.). ^3H-Cytisine was used to selectively bind to alpha4beta2 nAChRs and ^125I-α-bungarotoxin (α-Btx) for alpha? nAChRs. ^3H-Cytisine (34 Ci/mmol) experiments were performed according to Flores et al. (1992) with a few minor alterations, specifically that the incubation time was increased to four hours at 4° C. to assure binding equilibrium. The ^125I-α-Btx (136 Ci/mmol) experiments involved 37° C. incubation for three hours to assure equilibration. Both radioligands were generally tested at final concentrations of 1 nM. Membranes at the above mentioned concentrations were suspended in binding saline containing 2 mg/ml of bovine serum albumin (Sigma, St. Louis, Mo.) to reduce non-specific binding. For each radioligand, nonspecific binding was measured in the presence of a final concentration of 1 mM (S)-nicotine hydrogen tartrate salt (Sigma, St. Louis, Mo.). After incubation, radioligand bound to membranes in 48 tubes was rapidly collected by vacuum filtration using a Brandel cell harvester (Gaithersburg, Md.) and Whatman GF/C glass fiber filters that were pre-soaked in 0.5% polyethylenimine for 45 minutes to reduce nonspecific binding. The radiolabeled membranes were rapidly washed three times with 3 ml ice-cold binding saline to separate bound from free radioligand. Filters containing ^3H-cytisine bound membranes were placed in 20 ml scintillation tubes and suspended in 8 mls of 30% Scintisafe scintillation fluid (Fisher), then counted in a Beckman LS-6500 liquid scintillation counter (Fullerton, Calif.). Filters containing ^125I-α-Btx bound membranes were placed in 4 ml scintillation vials and counted in a Beckman 5500B gamma counter (Fullerton, Calif.).
Displacement assay binding data were analyzed using GraphPad Prism software (San Diego, Calif.). The mean counts per minute values for each concentration of a given compound concentration were obtained from 4 replicates. The data were fitted to a sigmoidal concentration response curve from which the Hill slope (n) and IC50 (X) values were estimated: Y=Bottom+(Top−Bottom)/(1+10^(Log IC50-X)n) Here, Top=maximal specific binding of radioligand at the top of the curve and Bottom=minimum specific binding observed at high concentrations of the displacing ligand. […] Results and Discussion

[3] = rat brain membranes, 3H-cytisine 1 nM, 4° C. four hours, read-out: α4β2 Receptor Rat Ki
[4] = rat brain membranes, 125I-α-Btx 1 nM, 37° C. three hours, read-out: α7 Receptor Rat Ki

c1cncc(C2=NCCCC2)c1 [Compound 1, anabaseine, reference compound]
Ki [1]: 290 nM | α7/α4β2 Selectivity (Selectivity factor) [1]: 0.26 | Ki [2]: 76 nM

COc1ccc(/C=C2\CCCN=C2c2cccnc2)c(OC)c1 [Compound 2, 3-(2,4-dimethoxybenzylidene)-anabaseine, reference compound]
α7/α4β2 Selectivity (Selectivity factor) [1]: 1.91

Oc1ccc(C=C2CCCN=C2c2cccnc2)cc1 [Compound 3, reference compound]
α7/α4β2 Selectivity (Selectivity factor) [1]: 1.2 | Ki [2, 3]: 450 nM

COc1ccc(C=C2C(c3cccnc3)=NCC[C@H]2C)c(OC)c1 [Compound 4, 3-(DMXB)-4(R)-methyl-anabaseine]
Ki [1]: 62 nM | α7/α4β2 Selectivity (Selectivity factor) [1]: 2.5 | Enantiomeric Selectivity [1]: 2.0 | Ki [2, 3]: 153 nM

COc1ccc(/C=C2/C(c3cccnc3)=NCC[C@@H]2C)c(OC)c1 [Compound 5, 3-(2,4-Dimethoxybenzylidene)-4(S)-methyl-anabaseine]
Ki [1]: 125 nM | α7/α4β2 Selectivity (Selectivity factor) [1]: 1.5 | Ki [2, 3]: 191 nM

COc1ccc(C=C2CC(C)CN=C2c2cccnc2)c(OC)c1 (stereo not shown) [Compound 6]
Enantiomeric Selectivity [1]: 6.8 | Ki [1, 4]: 220 nM

COc1ccc(C=C2CC(C)CN=C2c2cccnc2)c(OC)c1 (stereo not shown) [Compound 7]
Ki [1]: 1500 nM

COc1ccc(/C=C2\CC[C@H](C)N=C2c2cccnc2)c(OC)c1 [Compound 8, 3-(2,4-Dimethoxybenzylidene)-6(S)-methyl-anabaseine]
Ki [1]: 208 nM | α7/α4β2 Selectivity (Selectivity factor) [1]: 2.8 | Enantiomeric Selectivity [1]: 3.3 | Ki [2, 3]: 588 nM

COc1ccc(C=C2CC[C@@H](C)N=C2c2cccnc2)c(OC)c1 [Compound 9, 3-(DMXB)-6(R)-methyl-anabaseine]
Ki [1]: 401 nM | α7/α4β2 Selectivity (Selectivity factor) [1]: 0.86 | Ki [2, 3]: 344 nM

COc1ccc(C=C2C(c3cccnc3)=NC(C)CC2C)c(OC)c1 (stereo not shown) [Compound 10]
α7/α4β2 Selectivity (Selectivity factor) [1]: 1.3 | Enantiomeric Selectivity [1]: 11 | Ki [1, 4]: 37.6 nM | Ki [2, 3]: 49.8 nM

COc1ccc(/C=C2/C(c3cccnc3)=N[C@H](C)C[C@@H]2C)c(OC)c1 [Compound 11]
α7/α4β2 Selectivity (Selectivity factor) [1]: 1.5 | Ki [1, 4]: 409 nM | Ki [2, 3]: 610 nM

COc1ccc(/C=C2/C(c3cccnc3)=N[C@H]3CC[C@@H]2C3)c(OC)c1 [Compound 12, (1S,5R,E)-4-(2,4-dimethoxybenzylidene)-3-(pyridin-3-yl)-2-azabicyclo[3.2.1]oct-2-ene]
Ki [1]: 16.4 nM | α7/α4β2 Selectivity (Selectivity factor) [1]: 13 | Enantiomeric Selectivity [1]: 270 | Ki [2, 3]: 219 nM

COc1ccc(/C=C2/C(c3cccnc3)=N[C@@H]3CC[C@H]2C3)c(OC)c1 [Compound 13, (1R,5S,E)-4-(2,4-dimethoxybenzylidene)-3-(pyridin-3-yl)-2-azabicyclo[3.2.1]oct-2-ene]
Ki [1]: 4400 nM | α7/α4β2 Selectivity (Selectivity factor) [1]: 0.079 | Ki [2, 3]: 347 nM

Oc1ccc(/C=C2/C(c3cccnc3)=N[C@H]3CC[C@@H]2C3)cc1 [Compound 14, 4-((E)-((1S,5R)-3-(pyridin-3-yl)-2-azabicyclo[3.2.1]oct-2-en-4-ylidene)methyl)phenol]
Ki [1]: 34.1 nM | α7/α4β2 Selectivity (Selectivity factor) [1]: 2.1 | Ki [2]: 72.5 nM

C[C@H]1CC/C(=C\c2ccc(N)cc2)C(c2cccnc2)=N1 [Compound 15, 3-(4-Aminobenzylidene)-6(S)-methyl-anabaseine]
Ki [1]: 73 nM | α7/α4β2 Selectivity (Selectivity factor) [1]: 4.3 | Ki [2, 3]: 314 nM

Nc1ccc(/C=C2/C(c3cccnc3)=N[C@H]3CC[C@@H]2C3)cc1 [Compound 16, 3-(4-Aminobenzylidene)-4(R),6(S)-ethylene-anabaseine]
Ki [1]: 3.43 nM | α7/α4β2 Selectivity (Selectivity factor) [1]: 9.9 | Ki [2]: 34.1 nM
